From patent US20240279217A1, “Heterocyclic compounds for the treatment of tuberculosis” (TECNIMEDE - SOCIEDADE TÉCNICO-MEDICINAL, SA, priority 2021, published 2024)

Experiments:
[1] = Metabolic stability assay in liver microsomes; format: in vitro ADME; conditions: human, pH 7.4, 37° C., 60 minutes
Description: In an embodiment, metabolic stability assay was carried out. Metabolic stability was assessed by incubating test compounds in 96-well plates in 5 aliquots of 40 μL each (one for each time point) in liver microsomal incubation medium. This medium contained MgCl2 (3.3 mM), NADPH-cofactor system (NADPH (3 mM), glucose-6-phosphate (5.3 mM), glucose-6-phosphate dehydrogenase (0.67 units/ml)) and 0.42 mg of liver microsomal protein per ml in phosphate buffer (100 mM, pH 7.4). Control incubations were performed replacing the NADPH-cofactor system by phosphate buffer. Test compounds (1 μM, final solvent concentration 1.6%) were incubated with microsomes at 37° C. and 100 rpm orbital shaking.
Imipramine and Propranolol were incubated in parallel as reference compounds. Each reaction was performed in duplicate. Five time points over a duration 60 minutes were analysed. The reactions were stopped by adding 12 volumes of 90% acetonitrile in water to incubation aliquots, followed by protein sedimentation by centrifugation. Supernatants were analysed using a Shimadzu VP HPLC system with a reverse phase HPLC column, coupled with tandem mass spectrometer API 3000 (PE Sciex). […] The elimination constant (kel), half-life (t1/2) and intrinsic clearance (Clint) were determined in plot of In(AUC) versus time, using linear regression analysis for each test and reference compound.

[2] = pKa determination by potentiometric titration; format: physicochemical; conditions: acidified MeOH-water (1:4) solution of NaCl, 25° C.
Description: In an embodiment, pKa determination assay was carried out. The tendency of a compound to donate a proton is measured as its acid ionization constant (dissociation constant), or Ka. A more practical scale of representing acidity is pKa which is the negative logarithm of the Ka (pKa=−log Ka). The pKa determinations of the test compounds and 3 reference compounds were assessed by potentiometric titration, in accordance with the technical protocols for pKa measurement provided by Pion Inc. and Sirius Analytical Inc. Briefly, compounds pKa were determined by pH-metric method based on potentiometric acid-base titration at 25° C. The test and reference compounds were dissolved in acidified MeOH-water (1:4) solution of NaCl (150 mM, pH 2) and slowly titrated with 10 mM NaOH MeOH-water (1:4) solution. The recorded pH of the solution as a function of NaOH volume used during the titration were used to construct the titration curve. Titration of acidified NaCl solution in absence of any compound was used for blank plotting. Buffering capacity was calculated in each point of titration curve as the ratio of the NaOH flow (constant) to the pH rise velocity. The pKa value is determined from resulting plot of buffering capacity versus pH as the maximum of buffering capacity. pH-Metric method allows to measure pKa's in range between 2 and 12. […]

[3] = Human plasma protein binding (PPB) assay, equilibrium dialysis; format: in vitro ADME; conditions: non-diluted plasma, pH 7.4, percentage of plasma protein bounded compound, 5 hours dialysis, read-out: hPPB
Description: In an embodiment, human plasma protein binding (PPB) assay was carried out. The assay was performed in a multiple-use 96-well dialysis unit (HTD96b dialyzer). Each individual well unit consisted of 2 chambers separated by a vertically aligned dialysis membrane of predetermined pore size (MWCO 12-14 kDa). 120 μl of non-diluted plasma spiked with the compound (1 μM, 1% final DMSO concentration) was added to one chamber and the same volume of phosphate buffer saline pH 7.4 to the other chamber. HTD96b dialyzer was covered with adhesive sealing film and incubated at 37° C. and 100 rpm orbital shaking for 5 hours. Verapamil was also evaluated in parallel as reference compound. For sample preparation, an aliquot of the content of each chamber was mixed with the same volume of the blank opposite matrix. […] Supernatants were analysed using a Shimadzu VP HPLC system with a reverse phase column, coupled with a tandem mass spectrometer API 3000 (PE Sciex). […]
The percentage of plasma protein bounded compound and its recovery were calculated using the equations below: […]
The percentage of plasma protein bounded compound and its recovery were calculated using the values obtained for each compound in the quantification of the 3 samples (in buffer, plasma and standard solution).

SMILES: COc1cccc2ccc(N3CCC(c4nc(-c5ccc(OC(F)(F)F)cc5)no4)CC3)nc12 [Compound 3, 5-(1-(8-methoxyquinolin-2-yl)piperidin-4-yl)-3-(4-(trifluoromethoxy)phenyl)-1,2,4-oxadiazole]
- half-life at 1 μM [1]: 182 min
- microsomal CLint at 1 μM [1]: 9.2 µL/min/mg
- pKa [2]: 3.9
- fraction unbound at 5 h, 1 μM [3]: ≤ 0.001
